Assay results as given in the NIST ThermoML archive (doi:10.1016/j.fluid.2011.11.022).
Numbers after ± are expanded uncertainties.

Assay: wn = mass fraction of the nth substance listed
Settings: Liquid, w2 = 0.5; for mass density: Buoyancy - hydrostatic balance; for viscosity: Falling or rolling sphere viscometry

OCCOCCO [diethylene glycol] + OCCO
Settings	mass density [kg/m3]	viscosity [mPa·s]
298.15 K, 98 kPa	1112.21 ± 6.7	21.12 ± 0.86
298.15 K, 49030 kPa	1135.06 ± 6.8	28.23 ± 1.1
298.15 K, 98060 kPa	1151.37 ± 6.9	36.95 ± 1.5
298.15 K, 196130 kPa	1178.94 ± 7.1	60.47 ± 2.4
322.33 K, 49030 kPa	1121.67 ± 6.7	10.74 ± 0.44
322.34 K, 98 kPa	1097.38 ± 6.6	8.316 ± 0.34
332.21 K, 196130 kPa	1162.18 ± 7	20.76 ± 0.85
332.33 K, 98060 kPa	1132.91 ± 6.8	13.57 ± 0.55
353.8 K, 196130 kPa	1150.15 ± 6.9	7.683 ± 0.31
353.83 K, 98 kPa	1075.19 ± 6.5	3.488 ± 0.14
353.87 K, 49030 kPa	1101.62 ± 6.6	4.407 ± 0.18
354.1 K, 98060 kPa	1119.74 ± 6.7	5.334 ± 0.22
392.87 K, 98 kPa	1043.14 ± 6.3	1.641 ± 0.067
393.06 K, 49030 kPa	1072.66 ± 6.4	1.986 ± 0.081
393.3 K, 98060 kPa	1093.17 ± 6.6	2.36 ± 0.096
393.6 K, 196130 kPa	1126.12 ± 6.8	3.232 ± 0.13
435.93 K, 49030 kPa	1035.82 ± 6.2	1.09 ± 0.044
435.98 K, 98060 kPa	1060.12 ± 6.4	1.293 ± 0.053
436.08 K, 98 kPa	1001.82 ± 6	0.885 ± 0.036
436.13 K, 196130 kPa	1097.25 ± 6.6	1.731 ± 0.07
462.52 K, 98060 kPa	1037.39 ± 6.2	0.989 ± 0.04
462.54 K, 196130 kPa	1077.67 ± 6.5	1.313 ± 0.053
462.73 K, 49030 kPa	1011.05 ± 6.1	0.791 ± 0.032
462.75 K, 98 kPa	973.24 ± 5.8	0.671 ± 0.027

OCCOCCOCCO [triethylene glycol] + OCCO
Settings	mass density [kg/m3]	viscosity [mPa·s]
298.13 K, 98 kPa	1115.1 ± 6.7	26.24 ± 1.1
298.15 K, 49030 kPa	1136.47 ± 6.8	35.89 ± 1.5
298.15 K, 98060 kPa	1152.73 ± 6.9	48.05 ± 2
298.15 K, 196130 kPa	1180.8 ± 7.1	82.26 ± 3.6
322 K, 196130 kPa	1169.4 ± 7	27.05 ± 1.1
322.25 K, 98060 kPa	1139.05 ± 6.8	17.16 ± 0.7
322.32 K, 49030 kPa	1121.83 ± 6.7	13.34 ± 0.55
322.36 K, 98 kPa	1101.75 ± 6.6	10.13 ± 0.42
355.34 K, 98 kPa	1079 ± 6.5	3.999 ± 0.16
355.56 K, 49030 kPa	1099.04 ± 6.6	5.082 ± 0.21
355.67 K, 98060 kPa	1118.11 ± 6.7	6.302 ± 0.26
355.76 K, 196130 kPa	1151.43 ± 6.9	9.251 ± 0.38
392.2 K, 98 kPa	1047.37 ± 6.3	1.946 ± 0.08
392.33 K, 49030 kPa	1070.25 ± 6.4	2.418 ± 0.099
392.39 K, 98060 kPa	1092.45 ± 6.6	2.907 ± 0.12
392.77 K, 196130 kPa	1129.25 ± 6.8	4.045 ± 0.17
434.54 K, 98060 kPa	1059.58 ± 6.4	1.581 ± 0.065
434.56 K, 49030 kPa	1032.55 ± 6.2	1.33 ± 0.054
434.59 K, 98 kPa	1002.88 ± 6	1.058 ± 0.043
434.7 K, 196130 kPa	1101.01 ± 6.6	2.158 ± 0.088
462.27 K, 196130 kPa	1080.63 ± 6.5	1.616 ± 0.066
462.4 K, 49030 kPa	1004.97 ± 6	0.996 ± 0.041
462.47 K, 98060 kPa	1035.79 ± 6.2	1.196 ± 0.049
462.61 K, 98 kPa	968.72 ± 5.8	0.705 ± 0.029

OCCOCCOCCO [triethylene glycol] + OCCOCCO
Settings	mass density [kg/m3]	viscosity [mPa·s]
298.15 K, 98 kPa	1116.28 ± 6.7	32.4 ± 1.3
298.15 K, 49030 kPa	1140.16 ± 6.8	48.05 ± 2
298.15 K, 98060 kPa	1157.54 ± 7	68.97 ± 2.9
298.15 K, 196130 kPa	1186.23 ± 7.1	134.9 ± 6.8
322.18 K, 196130 kPa	1172.01 ± 7	39.19 ± 1.6
322.32 K, 98060 kPa	1143.4 ± 6.9	22.33 ± 0.92
322.38 K, 49030 kPa	1125.8 ± 6.8	16.39 ± 0.67
322.43 K, 98 kPa	1104.5 ± 6.6	11.71 ± 0.48
355.15 K, 98 kPa	1083.98 ± 6.5	4.468 ± 0.18
355.59 K, 49030 kPa	1103.74 ± 6.6	5.935 ± 0.24
355.77 K, 98060 kPa	1122.4 ± 6.7	7.663 ± 0.32
355.95 K, 196130 kPa	1151.5 ± 6.9	12.1 ± 0.5
391.02 K, 98 kPa	1055.33 ± 6.3	2.179 ± 0.089
391.29 K, 49030 kPa	1076.96 ± 6.5	2.772 ± 0.11
391.39 K, 98060 kPa	1098.19 ± 6.6	3.484 ± 0.14
391.57 K, 196130 kPa	1129.2 ± 6.8	5.188 ± 0.21
432.13 K, 98 kPa	1014.59 ± 6.1	1.172 ± 0.048
432.65 K, 98060 kPa	1067.76 ± 6.4	1.884 ± 0.077
432.68 K, 196130 kPa	1102.63 ± 6.6	2.658 ± 0.11
432.76 K, 49030 kPa	1041.87 ± 6.3	1.51 ± 0.062
472.77 K, 196130 kPa	1075.84 ± 6.5	1.747 ± 0.072
472.82 K, 98060 kPa	1035.69 ± 6.2	1.236 ± 0.051
473.06 K, 49030 kPa	1003.66 ± 6	1.008 ± 0.041
473.1 K, 98 kPa	965.58 ± 5.8	0.716 ± 0.029
